According to US11365192B2, “Pyridine compound substituted with azole” (TAISHO PHARMACEUTICAL CO., LTD., priority 2017, dated 2022):

Tests used:
human CYP4F2 = human CYP4F2 (Homo sapiens (Human), UniProt P78329); assay: Inhibition test against 20-HETE producing enzyme CYP4F2 (luciferine derivative, luminescence); assay type: biochemical; settings: E. coli membrane fraction expressing human CYP4F2, 2.5 μM luciferine derivative, room temperature 60 minutes
Method in brief: (§1)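 IC50 derived from luminescence after 60 min at room temperature with membrane fractions of E. coli expressing each human CYP (100 μg/mL protein). For CYP4A11, 60 μM luciferin derivative in 100 mM Tris-HCl pH 7.5 with NADPH-regenerating system; for CYP4F2, 2.5 μM substrate, 1 mM NADPH, 50 mM KPO4 pH 7.4.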

human CYP4A11 = human CYP4A11 (Homo sapiens (Human), UniProt Q02928); assay: Inhibition test against 20-HETE producing enzyme CYP4A11 (luciferine derivative, luminescence); assay type: biochemical; settings: E. coli membrane fraction expressing human CYP4A11, 60 μM luciferine derivative, room temperature 60 minutes
Method in brief: as §1

Chain of human CYP4A11 (Q02928 5-519): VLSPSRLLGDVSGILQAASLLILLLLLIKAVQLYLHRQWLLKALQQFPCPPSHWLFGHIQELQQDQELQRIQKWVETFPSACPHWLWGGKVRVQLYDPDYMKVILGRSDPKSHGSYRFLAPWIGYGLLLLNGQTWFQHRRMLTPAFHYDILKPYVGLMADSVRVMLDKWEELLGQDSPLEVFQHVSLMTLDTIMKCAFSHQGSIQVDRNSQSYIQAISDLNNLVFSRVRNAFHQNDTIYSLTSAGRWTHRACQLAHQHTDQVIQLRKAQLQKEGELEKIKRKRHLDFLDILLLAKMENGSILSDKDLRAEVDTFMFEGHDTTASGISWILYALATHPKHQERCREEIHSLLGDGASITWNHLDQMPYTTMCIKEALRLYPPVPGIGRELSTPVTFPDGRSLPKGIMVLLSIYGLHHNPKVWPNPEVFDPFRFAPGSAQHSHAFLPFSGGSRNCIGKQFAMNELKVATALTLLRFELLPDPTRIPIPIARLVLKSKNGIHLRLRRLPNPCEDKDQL
Chain of human CYP4F2 (P78329 5-520): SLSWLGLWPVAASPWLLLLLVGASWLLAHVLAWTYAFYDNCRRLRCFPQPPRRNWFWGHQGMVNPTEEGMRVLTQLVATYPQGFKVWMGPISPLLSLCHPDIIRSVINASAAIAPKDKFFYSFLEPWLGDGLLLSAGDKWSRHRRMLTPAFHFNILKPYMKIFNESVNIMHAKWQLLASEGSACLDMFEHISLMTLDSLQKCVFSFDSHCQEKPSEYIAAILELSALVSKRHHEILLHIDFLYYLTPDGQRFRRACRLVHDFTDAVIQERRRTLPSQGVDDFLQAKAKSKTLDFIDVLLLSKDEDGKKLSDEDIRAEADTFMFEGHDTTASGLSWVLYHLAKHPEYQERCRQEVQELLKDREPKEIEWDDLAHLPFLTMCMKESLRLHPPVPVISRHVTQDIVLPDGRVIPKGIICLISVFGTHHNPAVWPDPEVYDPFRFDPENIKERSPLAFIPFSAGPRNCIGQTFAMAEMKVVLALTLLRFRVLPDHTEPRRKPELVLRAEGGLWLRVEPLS

## CC(C(=O)O)c1cccc(COc2ccc(-c3ccn[nH]3)nc2)c1 (stereo not shown) [Example 24-1, Sodium 2-[3-[[6-(1H-pyrazol-5-yl)-3-pyridinyl]oxymethyl]phenyl]propanoate]
Human CYP4F2
  IC50: 13000 nM
Human CYP4A11
  IC50: 16 nM

## CC(C)(C(=O)O)c1cccc(COc2ccc(-c3ccn[nH]3)nc2)c1 [Example 24-2, Sodium 2-methyl-2-[3-[[6-(1H-pyrazol-5-yl)-3-pyridinyl]oxymethyl]phenyl]propanoate]
Human CYP4F2
  IC50: 3500 nM
Human CYP4A11
  IC50: 16 nM

## CC(C)(C(=O)O)c1cccc(OCCOc2ccc(-c3ccn[nH]3)nc2)c1 [Example 24-3]
Human CYP4F2
  IC50: 3200 nM
Human CYP4A11
  IC50: 60 nM

## Cc1cc(COc2ccc(-c3ccn[nH]3)nc2)ccc1C(=O)O [Example 25-1, 2-Methyl-4-[[6-(1H-pyrazol-5-yl)-3-pyridinyl]oxymethyl]benzoic Acid]
Human CYP4F2
  IC50: 16000 nM
Human CYP4A11
  IC50: 33 nM

## CC(C)(O)c1cccc(COc2ccc(-c3ccn[nH]3)nc2)c1 [Example 27-1, 2-[3-[[6-(1-H-Pyrazol-5-yl)-3-pyridinyl]oxymethyl]phenyl]-2-propanol]
Human CYP4F2
  IC50: 400 nM
Human CYP4A11
  IC50: 44 nM

## CC(O)(c1cccc(COc2ccc(-c3ccn[nH]3)nc2)c1)C(F)(F)F (stereo not shown) [Example 27-2]
Human CYP4F2
  IC50: 300 nM
Human CYP4A11
  IC50: 15 nM

## OC1(c2cccc(COc3ccc(-c4ccn[nH]4)nc3)c2)CCC1 [Example 27-3]
Human CYP4F2
  IC50: 350 nM
Human CYP4A11
  IC50: 120 nM

## OC1(c2cccc(COc3ccc(-c4ccn[nH]4)nc3)c2)CCCC1 [Example 27-4]
Human CYP4F2
  IC50: 120 nM
Human CYP4A11
  IC50: 110 nM

## CC(C)(O)c1cc(COc2ccc(-c3ccn[nH]3)nc2)ccc1F [Example 27-5]
Human CYP4F2
  IC50: 900 nM
Human CYP4A11
  IC50: 79 nM

## O=C(O)[C@H]1C[C@](O)(c2cccc(COc3ccc(-c4ccn[nH]4)nc3)c2)C1 [Example 28-1, 3-Hydroxy-3-[3-[[6-(1-H-pyrazol-5-yl)-3-pyridinyl]oxymethyl]phenyl]-1-cyclobutanecarboxylic Acid]
Human CYP4F2
  IC50: 470 nM
Human CYP4A11
  IC50: 61 nM

## O=C(O)[C@H]1C[C@](O)(c2cc(COc3ccc(-c4ccn[nH]4)nc3)ccc2F)C1 [Example 28-2]
Human CYP4F2
  IC50: 1000 nM
Human CYP4A11
  IC50: 100 nM

## O=C(O)c1cccc(CCCOc2ccc(-c3ccn[nH]3)nc2)n1 [Example 29-1, 6-[3-[[6-(1H-Pyrazol-5-yl)-3-pyridinyl]oxy]propyl]-2-pyridinecarboxylic Acid]
Human CYP4F2
  IC50: 4000 nM
Human CYP4A11
  IC50: 650 nM

## O=C(O)c1ccnc(CCCOc2ccc(-c3ccn[nH]3)nc2)c1 [Example 29-2, 2-[3-[[6-(1H-Pyrazol-5-yl)-3-pyridinyl]oxy]propyl]-4-pyridinecarboxylic Acid]
Human CYP4F2
  IC50: 2700 nM
Human CYP4A11
  IC50: 1300 nM

## O=C(O)c1ncc(CCCCOc2ccc(-c3ccn[nH]3)nc2)cn1 [Example 29-3]
Human CYP4F2
  IC50: 84 nM
Human CYP4A11
  IC50: 380 nM

## O=C(O)c1ccc(CCCCOc2ccc(-c3ccn[nH]3)nc2)cn1 [Example 29-4]
Human CYP4F2
  IC50: 240 nM
Human CYP4A11
  IC50: 42 nM

## O=C(O)c1cccc(CCCCOc2ccc(-c3ccn[nH]3)nc2)n1 [Example 29-5]
Human CYP4F2
  IC50: 690 nM
Human CYP4A11
  IC50: 29 nM

## O=C(O)CCCc1cccc(COc2ccc(-c3ccn[nH]3)nc2)c1 [Example 30-1, 4-[3-[[6-(1H-Pyrazol-5-yl)-3-pyridinyl]oxymethyl]phenyl]butanoic Acid]
Human CYP4F2
  IC50: 1400 nM
Human CYP4A11
  IC50: 17 nM

## O=C(O)CCCc1ccc(COc2ccc(-c3ccn[nH]3)nc2)cc1 [Example 30-2]
Human CYP4F2
  IC50: 190 nM
Human CYP4A11
  IC50: 160 nM

## O=C(O)CCc1cccc(CCCOc2ccc(-c3ccn[nH]3)nc2)c1 [Example 30-3, 3-[3-[3-[[6-(1H-Pyrazol-5-yl)-3-pyridinyl]oxy]propyl]phenyl]propanoic Acid]
Human CYP4F2
  IC50: 370 nM
Human CYP4A11
  IC50: 150 nM

## O=C(O)CCCc1cccc(CCCOc2ccc(-c3ccn[nH]3)nc2)c1 [Example 30-4]
Human CYP4F2
  IC50: 350 nM
Human CYP4A11
  IC50: 140 nM

## O=C(O)CCCc1ccc(CCCOc2ccc(-c3ccn[nH]3)nc2)cc1 [Example 30-5]
Human CYP4F2
  IC50: 74 nM
Human CYP4A11
  IC50: 420 nM

## O=C(O)c1cccc(-c2cccc(COc3ccc(-c4ccn[nH]4)nc3)c2)c1 [Example 31-1, 3-[3-[[6-(1H-Pyrazol-5-yl)-3-pyridinyl]oxymethyl]phenyl]benzoic Acid]
Human CYP4F2
  IC50: 110 nM
Human CYP4A11
  IC50: 9.3 nM

## O=C(O)c1ccc(-c2cccc(COc3ccc(-c4ccn[nH]4)nc3)c2)cc1 [Example 31-2]
Human CYP4F2
  IC50: 100 nM
Human CYP4A11
  IC50: 9.8 nM

## O=C(O)c1ccc(-c2cccc(COc3ccc(-c4ccn[nH]4)nc3)c2)cn1 [Example 31-3, 5-[3-[[6-(1H-Pyrazol-5-yl)-3-pyridinyl]oxymethyl]phenyl]-2-pyridinecarboxylic Acid]
Human CYP4F2
  IC50: 180 nM
Human CYP4A11
  IC50: 25 nM

## O=C(O)c1cncc(-c2cccc(COc3ccc(-c4ccn[nH]4)nc3)c2)c1 [Example 31-4]
Human CYP4F2
  IC50: 390 nM
Human CYP4A11
  IC50: 12 nM

## O=C(O)Cc1cccc(CCCOc2ccc(-c3ccn[nH]3)nc2)c1 [Example 32-1, 2-[3-[3-[[6-(1H-Pyrazol-5-yl)-3-pyridinyl]oxy]propyl]phenyl]acetic Acid]
Human CYP4F2
  IC50: 430 nM
Human CYP4A11
  IC50: 33 nM

## CC(C)(C(=O)O)c1cccc(CCCOc2ccc(-c3ccn[nH]3)nc2)c1 [Example 32-2]
Human CYP4F2
  IC50: 1300 nM
Human CYP4A11
  IC50: 22 nM

## CC(=O)N1CCC(C(=O)O)(c2cccc(COc3ccc(-c4ccn[nH]4)nc3)c2)CC1 [Example 33-1, 1-Acetyl-4-[3-[[6-(1H-pyrazol-5-yl)-3-pyridinyl]oxymethyl]phenyl]-4-piperidinecarboxylic Acid]
Human CYP4F2
  IC50: 7000 nM
Human CYP4A11
  IC50: 180 nM

## O=C(O)C1(c2cccc(COc3ccc(-c4ccn[nH]4)nc3)c2)CCOCC1 [Example 33-2, 4-[3-[[6-(1H-Pyrazol-5-yl)-3-pyridinyl]oxymethyl]phenyl]-4-oxanecarboxylic Acid]
Human CYP4F2
  IC50: 14000 nM
Human CYP4A11
  IC50: 130 nM

## O=C(O)C1CCN(c2cccc(COc3ccc(-c4ccn[nH]4)nc3)c2)CC1 [Example 34-1, 1-[3-[[6-(1H-Pyrazol-5-yl)-3-pyridinyl]oxymethyl]phenyl]-4-piperidinecarboxylic Acid]
Human CYP4F2
  IC50: 4100 nM
Human CYP4A11
  IC50: 42 nM

## O=C(O)C1CCCN(c2cccc(COc3ccc(-c4ccn[nH]4)nc3)c2)C1 (stereo not shown) [Example 34-2]
Human CYP4F2
  IC50: 11000 nM
Human CYP4A11
  IC50: 50 nM

## O=C(O)c1cnn(-c2cccc(COc3ccc(-c4ccn[nH]4)nc3)c2)c1 [Example 34-3, 1-[3-[[6-(1H-Pyrazol-5-yl)-3-pyridinyl]oxymethyl]phenyl]-4-pyrazolecarboxylic Acid]
Human CYP4F2
  IC50: 390 nM
Human CYP4A11
  IC50: 26 nM

## O=C(O)Cn1cc(CCCOc2ccc(-c3ccn[nH]3)nc2)nn1 [Example 35-1, 2-[4-[3-[[6-(1H-Pyrazol-5-yl)-3-pyridinyl]oxy]propyl]-1-triazolyl]acetic Acid]
Human CYP4F2
  IC50: 20000 nM
Human CYP4A11
  IC50: 3000 nM

## O=C(O)Cn1cc(CCCCOc2ccc(-c3ccn[nH]3)nc2)nn1 [Example 35-2]
Human CYP4F2
  IC50: 5700 nM
Human CYP4A11
  IC50: 360 nM

## CC(C)(C(=O)O)n1cc(CCCCOc2ccc(-c3ccn[nH]3)nc2)nn1 [Example 35-3]
Human CYP4F2
  IC50: 7400 nM
Human CYP4A11
  IC50: 290 nM

## CC(C)(O)CS(=O)(=O)c1cccc(COc2ccc(-c3ccn[nH]3)nc2)c1 [Example 36-1, 2-Methyl-1-[3-[[6-(1-H-pyrazol-5-yl)-3-pyridinyl]oxymethyl]phenyl] sulfonyl-2-propanol]
Human CYP4F2
  IC50: 93 nM
Human CYP4A11
  IC50: 82 nM

## CC(C)(CCCS(=O)(=O)c1cccc(COc2ccc(-c3ccn[nH]3)nc2)c1)C(=O)O [Example 37-1, 2,2-Dimethyl-5-[3-[[6-(1H-pyrazol-5-yl)-3-pyridinyl]oxymethyl]phenyl] sulfonylpentanoic Acid]
Human CYP4F2
  IC50: 32 nM
Human CYP4A11
  IC50: 46 nM

## O=C(O)CCc1cccc(COc2cnc(-c3ccn[nH]3)c(F)c2)c1 [Example 38-1, 3-[3-[[5-Fluoro-6-(1H-pyrazol-5-yl)-3-pyridinyl]oxymethyl]phenyl]propanoic Acid]
Human CYP4F2
  IC50: 1100 nM
Human CYP4A11
  IC50: 20 nM

## O=C(O)Cc1cccc(COc2ccc(-c3cn[nH]c3)nc2)c1 [Example 38-2, 2-[3-[[6-(1H-Pyrazol-4-yl)-3-pyridinyl]oxymethyl]phenyl]acetic Acid]
Human CYP4F2
  IC50: 19000 nM
Human CYP4A11
  IC50: 11 nM

## Cc1cn[nH]c1-c1ccc(OCC23CCC(C(=O)O)(CC2)CC3)cn1 [Example 38-3, 1-[[6-(4-Methyl-1H-pyrazol-5-yl)-3-pyridinyl]oxymethyl]-4-bicyclo[2.2.2]octanecarboxylic Acid]
Human CYP4F2
  IC50: 17000 nM
Human CYP4A11
  IC50: 35 nM

## O=C(O)Cc1cccc(COc2ccc(-c3ccns3)nc2)c1 [Example 39-1, 2-[3-[[6-(5-Isothiazolyl)-3-pyridinyl]oxymethyl]phenyl]acetic Acid]
Human CYP4F2
  IC50: 13000 nM
Human CYP4A11
  IC50: 5.3 nM

## O=C(O)C12CCC(COc3ccc(-c4ccns4)nc3)(CC1)CC2 [Example 39-2]
Human CYP4F2
  IC50: 22000 nM
Human CYP4A11
  IC50: 18 nM

## O=C(O)Cc1cccc(COc2ccc(-c3cnco3)nc2)c1 [Example 40-1, 2-[3-[[6-(5-Oxazolyl)-3-pyridinyl]oxymethyl]phenyl]acetic Acid]
Human CYP4F2
  IC50: 28000 nM
Human CYP4A11
  IC50: 9.9 nM

## O=C(O)Cc1cccc(COc2ccc(-c3cncs3)nc2)c1 [Example 40-2]
Human CYP4F2
  IC50: 8200 nM
Human CYP4A11
  IC50: 6.9 nM

## NS(=O)(=O)c1cccc(C(=O)N2CCC[C@@H](COc3ccc(-c4ccn[nH]4)nc3)C2)c1 [Example 41-1, 3-[Oxo-[(3R)-3-[[6-(1H-pyrazol-5-yl)-3-pyridinyl]oxymethyl]-1-piperidinyl]methyl]benzenesulfonamide]
Human CYP4F2
  IC50: 590 nM
Human CYP4A11
  IC50: 250 nM

## NS(=O)(=O)c1ccc(C(=O)N2CCC[C@@H](COc3ccc(-c4ccn[nH]4)nc3)C2)cc1 [Example 41-2]
Human CYP4F2
  IC50: 450 nM
Human CYP4A11
  IC50: 330 nM

## O=C(c1ccc(=O)[nH]c1)N1CCC[C@@H](COc2ccc(-c3ccn[nH]3)nc2)C1 [Example 41-3]
Human CYP4F2
  IC50: 4300 nM
Human CYP4A11
  IC50: 570 nM
